Measured values taken from the supplement of paper PMC6461962.
Where a name gives a salt, the structure may show the parent alone.

Columns and labels:
[1] = system: Rhodanobacter sp. FW104-10B01
Summary of the method: (§1)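 Washed cells (80 µL, final OD600 0.02) were dispensed onto 384-well dilution series of inorganic ion salts or equimolar nitrilotriacetic acid complexes. Plates kept aerobically were shaken at 700 rpm at 30 °C, anaerobic ones stayed still, and OD600 readings at 24 h (48 h for R2A strain comparisons) were scaled between water and growth-blocking antibiotic controls, ignoring wells with precipitate. IC50 values are drc R package fits of at least two biological replicate curves.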

[2] = system: Pseudomonas fluorescens FW300-N2E2
Summary of the method: as §1

[3] = medium / electron acceptor: 10B01 R2A/aerobic
[4] = medium / electron acceptor: 10B01 R2A/nitrate
[5] = medium / electron acceptor: N2E2 Glucose/aerobic
[6] = medium / electron acceptor: N2E2 Glucose/aerobic 0.25xMinerals
[7] = medium / electron acceptor: N2E2 Glucose/aerobic (2)
[8] = medium / electron acceptor: N2E2 KB/aerobic
[9] = medium / electron acceptor: N2E2 LB/aerobic
[10] = medium / electron acceptor: N2E2 LB/aerobic (2)
[11] = medium / electron acceptor: N2E2 LB/nitrate
[12] = medium / electron acceptor: N2E2 Lactate/aerobic
[13] = medium / electron acceptor: N2E2 R2A/aerobic

SMILES	IC50 growth inhibition [1, 3] [mM]	IC50 growth inhibition [1, 4] [mM]	IC50 growth inhibition [2, 5] [mM]	IC50 growth inhibition [2, 6] [mM]	IC50 growth inhibition [2, 7] [mM]	IC50 growth inhibition [2, 8] [mM]	IC50 growth inhibition [2, 9] [mM]	IC50 growth inhibition [2, 10] [mM]	IC50 growth inhibition [2, 11] [mM]	IC50 growth inhibition [2, 12] [mM]	IC50 growth inhibition [2, 13] [mM]
[O-][I+2]([O-])O [sodium iodate]	35.4	4.5	4.72	2.75	0.645	3.53	8.49	12.4	0.208	5.41	7.77
O.O.O.O.O.O.[Cl-].[Cl-].[Mg+2] [Magnesium chloride hexahydrate]	218	141	276	431	366	354	354	360	321	354	268
OCl [Sodium hypochlorite]	> 5	> 5	> 5	> 5	2.28	> 5	> 5	> 5	0.534	> 5	3.32
[Cl][Fe]([Cl])[Cl] [Ferric chloride]	> 50	> 50	> 50	> 50	39.2	> 50	> 50	> 50	> 50	41.7	0.237
O.O.[Ba+2].[Cl-].[Cl-] [Barium chloride dihydrate]	> 5	> 5	> 5	3.19	2.84	3.22	> 5	> 5	4.99	> 5	> 5
O.O.O.O.O.[Cd+2].[Cd+2].[Cl-].[Cl-].[Cl-].[Cl-] [Cadmium chloride hemipentahydrate]	0.11	0.189	< 0.00244	< 0.00244	< 0.00244	0.117	0.141	0.0516	0.111	< 0.00244	0.014
[Ca+2].[Cl-].[Cl-] [Calcium chloride dihydrate]	354	354	> 500	> 500	> 500	> 500	309	365	65.1	452	333
O=[N+]([O-])[O-].[Na+] [Sodium nitrate]	> 500	> 500	275	> 500	324	354	354	383	> 500	354	400
[K+].[OH-].[OH-].[OH-].[OH-].[OH-].[OH-].[Sb+3] [potassium hexahydroxoantimonate]	> 5	> 5	> 5	3.96	4.82	4.98	> 5	4.82	3.08	> 5	> 5
[Cl][Pb][Cl] [lead (II) chloride]	> 5	> 5	> 5	0.0379	> 5	> 5	> 5	> 5	> 5	> 5	0.14
[Cl-].[K+] [Potassium Chloride]	> 500	381	> 500	> 500	> 500	> 500	> 500	> 500	458	> 500	> 500
[Cl][Bi]([Cl])[Cl] [bismuth(III) chloride]	0.00279	0.354	0.0103	0.00276	0.00153	0.0578	0.0727	0.103	0.00603	0.00786	0.00401
NO [Hydroxylamine hydrochloride]	31.9	> 500	< 0.244	< 0.244	< 0.244	< 0.244	< 0.244	< 0.244	0.694	< 0.244	< 0.244
O=P(O)(O)OP(=O)(O)O [Sodium pyrophosphate dibasic]	8.54	0.854	29.4	0.848	0.226	1.78	36.1	25.4	4.34	> 50	2.35
[Cl][Pd][Cl] [Palladium(II) chloride]	> 5	> 5	< 0.00244	< 0.00244	< 0.00244	3.73	> 5	3.78	> 5	< 0.00244	0.249
O=S(O)(O)=S [Sodium thiosulfate]	> 500	57.6	318	> 500	386	319	363	360	185	355	360
O.O=[Te](=O)([O-])[O-].[K+].[K+] [potassium tellurate hydrate]	> 0.5	> 0.5	> 0.5	0.0753	0.444	> 0.5	> 0.5	0.377	0.0845	0.354	> 0.5
[Br-].[Na+] [sodium bromide]	> 500	> 500	354	405	379	354	354	354	303	378	448
O=C(O)CN(CC(=O)O)CC(=O)O [Nitrilotriacetic acid]	> 250	> 250	0.345	21.4	6.51	15.3	54.7	111	6.75	< 0.122	9.21
OP(O)O [Sodium phosphite dibasic pentahydrate]	> 500	197	< 0.244	< 0.244	< 0.244	2.03	354	354	118	< 0.244	309
[Ce+3].[Cl-].[Cl-].[Cl-] [Cerium(III) chloride]	< 0.244	< 0.244	< 0.244	< 0.244	< 0.244	< 0.244	< 0.244	< 0.244	< 0.244	< 0.244	< 0.244
